Laboratory results reported in patent US7833939B2, “Herbicide compositions” (Kumiai Chemical Industry Co., Ltd., priority 2002, dated 2010).

Columns and labels:
[1] = tested on: green foxtail (Setaria viridis); experiment: Herbicidal effect by upland field soil treatment (Application Example 1): green foxtail; type: in vivo; conditions: 30th day from treatment
Procedure: (§1) Test for Herbicidal Effect by Upland Field Soil Treatment
(§2) An upland field soil was filled in a plastic pot of 11 cm each of length, width and depth. Seeds of corn, green foxtail (Setaria viridis) and common lambsquarters (Chenopodium album L.) were sowed, followed by covering with the same soil. The wettable powder produced in accordance with Formulation 1 was weighed so as to provide active ingredients in a predetermined amount, and was diluted with water and sprayed uniformly on the soil surface using a small sprayer, in an amount of 100 liters per […]. Then, growing was made in a greenhouse, and the herbicidal effect of each wettable powder was examined at the 30th day from the treatment in accordance with the standard shown in Table 15.

[2] = tested on: common lambsquarters (Chenopodium album L.); experiment: Herbicidal effect by upland field soil treatment (Application Example 1): common lambsquarters; type: in vivo; conditions: 30th day from treatment
Procedure: as §1, §2

corn = experiment: Herbicidal effect by upland field soil treatment (Application Example 1): phytotoxicity to corn; type: in vivo; conditions: 30th day from treatment
Procedure: as §1, §2

[3] = 32 g a.i./ha, soil surface spray of wettable powder, index of Table 15
[4] = 16 g a.i./ha, upland field soil treatment
[5] = 16 g a.i./ha, soil surface spray of wettable powder, index of Table 15
[6] = 500 g a.i./ha, soil surface spray of wettable powder, index of Table 15
[7] = 500 g a.i./ha, upland field soil treatment
[8] = 32 g a.i./ha, upland field soil treatment

## Cc1nsc(Cl)c1CS(=O)(=O)C1=NOC(C)(C)C1 [Compound 4-0002, [(5-chloro-3-methyl-isothiazol-4-yl)-methylsulfonyl]-5,5-dimethyl-2-isoxazoline]
[1]; [3]
  Herbicidal effect Green foxtail (Sataria viridis): 3 (Herbicidal effect or phytotoxicity of from 30 to 39%)
[2]; [3]
  Herbicidal effect Common lambsquarter (Chenopodium album L.): 2 (Herbicidal effect or phytotoxicity of from 20 to 29%)
corn; [3]
  Herbicidal effect Corn: 0 (Herbicidal effect or phytotoxicity of from 0 to 9%)

## Cn1nc(C(F)(F)F)c(CS(=O)(=O)C2=NOC(C)(C)C2)c1C#N [Compound 3-0016, 3-(5-cyano-1-methyl-3-trifluoromethyl-1H-pyrazol-4-ylmethylsulfonyl)-5,5-dimethyl-2-isoxazoline]
other
  melting point: 105 to 108 °C
[1]; [4]
  Herbicidal effect Green foxtail (Sataria viridis): 3 (Herbicidal effect or phytotoxicity of from 30 to 39%)
[2]; [4]
  Herbicidal effect Common lambsquarter (Chenopodium album L.): 3 (Herbicidal effect or phytotoxicity of from 30 to 39%)
corn; [4]
  Herbicidal effect Corn: 0 (Herbicidal effect or phytotoxicity of from 0 to 9%)

## CC1(C)CC(SCc2c(C(F)(F)F)nn(C(C)(C)C)c2Cl)=NO1
other
  melting point: 79 to 81 °C

## Cn1nc(C(F)(F)F)c(CS(=O)(=O)C2=NOC(C)(C)C2)c1OC(F)F [Compound 3-0188, 3-(5-difluoromethoxy-1-methyl-3-trifluoromethyl-1H-pyrazol-4-ylmethanesulfonyl)-5,5-dimethyl-2-isoxazoline]
[1]; [5]
  Herbicidal effect Green foxtail (Sataria viridis): 3 (Herbicidal effect or phytotoxicity of from 30 to 39%)
[2]; [5]
  Herbicidal effect Common lambsquarter (Chenopodium album L.): 2 (Herbicidal effect or phytotoxicity of from 20 to 29%)

## COc1c(CS(=O)(=O)C2=NOC(C)(C)C2)c(C(F)(F)F)nn1C [Compound 3-0013, 5,5-dimethyl-3-(5-methoxy-1-methyl-3-trifluoromethyl-1H-pyrazol-4-ylmethylsulfonyl)-2-isoxazoline]
other
  melting point: 113 to 114 °C
[1]; [4]
  Herbicidal effect Green foxtail (Sataria viridis): 2 (Herbicidal effect or phytotoxicity of from 20 to 29%)
[2]; [4]
  Herbicidal effect Common lambsquarter (Chenopodium album L.): 2 (Herbicidal effect or phytotoxicity of from 20 to 29%)
corn; [4]
  Herbicidal effect Corn: 0 (Herbicidal effect or phytotoxicity of from 0 to 9%)

## CC1(C)CC(SCc2c(Cl)nn(C(F)F)c2C(F)(F)F)=NO1
other
  melting point: 89 to 90 °C

## COc1ncnc(C(F)(F)F)c1CS(=O)(=O)C1=NOC(C)(C)C1 [Compound 8-0001, 5,5-dimethyl-[(4-methoxy-6-trifluoromethylpyrimidin-5-yl)-methylsulfonyl]-2-isoxazoline]
[1]; [5]
  Herbicidal effect Green foxtail (Sataria viridis): 2 (Herbicidal effect or phytotoxicity of from 20 to 29%)
[2]; [5]
  Herbicidal effect Common lambsquarter (Chenopodium album L.): 1 (Herbicidal effect or phytotoxicity of from 10 to 19%)
corn; [5]
  Herbicidal effect Corn: 0 (Herbicidal effect or phytotoxicity of from 0 to 9%)

## Cn1nc(C(F)F)c(CS(=O)(=O)C2=NOC(C)(C)C2)c1Cl [Compound 3-0018, 3-(5-chloro-3-difluoromethyl-1-methyl-1H-pyrazol-4-ylmethylsulfonyl)-5,5-dimethyl-2-isoxazoline]
other
  melting point: 78 to 79 °C
[1]; [4]
  Herbicidal effect Green foxtail (Sataria viridis): 3 (Herbicidal effect or phytotoxicity of from 30 to 39%)
[2]; [4]
  Herbicidal effect Common lambsquarter (Chenopodium album L.): 3 (Herbicidal effect or phytotoxicity of from 30 to 39%)
corn; [4]
  Herbicidal effect Corn: 0 (Herbicidal effect or phytotoxicity of from 0 to 9%)

## CC1(C)CC(SCc2c(C(F)(F)F)n[nH]c2Cl)=NO1
other
  melting point: 120 to 122 °C

## Cn1nc(C(F)(F)F)c(CS(=O)(=O)C2=NOC(C)(C)C2)c1Cl [Compound 3-0039, 3-(5-chloro-1-methyl-3-trifluoromethylpyrazol-4-ylmethanesulfonyl)-5,5-dimethyl-2-isoxazoline]
other
  melting point: 115 to 116 °C
[1]; [5]
  Herbicidal effect Green foxtail (Sataria viridis): 3 (Herbicidal effect or phytotoxicity of from 30 to 39%)
[2]; [5]
  Herbicidal effect Common lambsquarter (Chenopodium album L.): 3 (Herbicidal effect or phytotoxicity of from 30 to 39%)
corn; [5]
  Herbicidal effect Corn: 0 (Herbicidal effect or phytotoxicity of from 0 to 9%)

## CCn1nc(Cl)c(CS(=O)(=O)C2=NOC(C)(C)C2)c1Cl [Compound 3-0017, 3-(3,5-dichloro-1-ethyl-1H-pyrazol-4-ylmethylsulfonyl)-5,5-dimethyl-2-isoxazoline]
other
  melting point: 105 to 107 °C
[1]; [4]
  Herbicidal effect Green foxtail (Sataria viridis): 3 (Herbicidal effect or phytotoxicity of from 30 to 39%)
[2]; [4]
  Herbicidal effect Common lambsquarter (Chenopodium album L.): 3 (Herbicidal effect or phytotoxicity of from 30 to 39%)
corn; [4]
  Herbicidal effect Corn: 0 (Herbicidal effect or phytotoxicity of from 0 to 9%)

## CCNc1nc(Cl)nc(NC(C)(C)C#N)n1 [Cyanazine, cyanazine, reference compound]
[1]; [6]
  Herbicidal effect Green foxtail (Sataria viridis): 1 (Herbicidal effect or phytotoxicity of from 10 to 19%)
[1]; [7]
  Herbicidal effect Green foxtail (Sataria viridis): 1 (Herbicidal effect or phytotoxicity of from 10 to 19%)
[2]; [6]
  Herbicidal effect Common lambsquarter (Chenopodium album L.): 2 (Herbicidal effect or phytotoxicity of from 20 to 29%)
[2]; [7]
  Herbicidal effect Common lambsquarter (Chenopodium album L.): 2 (Herbicidal effect or phytotoxicity of from 20 to 29%)
corn; [6]
  Herbicidal effect Corn: 0 (Herbicidal effect or phytotoxicity of from 0 to 9%)
corn; [7]
  Herbicidal effect Corn: 0 (Herbicidal effect or phytotoxicity of from 0 to 9%)

## CON=C(C)c1c(C)sc(C)c1CS(=O)(=O)C1=NOC(C)(C)C1 [Compound 2-0001, 5,5-dimethyl-3-[2,5-dimethyl-4-(1-methoxyiminoethyl)-thiophen-3-ylmethylsulfonyl]-2-isoxazoline]
other
  melting point: 95 to 96 °C
[1]; [3]
  Herbicidal effect Green foxtail (Sataria viridis): 2 (Herbicidal effect or phytotoxicity of from 20 to 29%)
[2]; [3]
  Herbicidal effect Common lambsquarter (Chenopodium album L.): 1 (Herbicidal effect or phytotoxicity of from 10 to 19%)
corn; [3]
  Herbicidal effect Corn: 0 (Herbicidal effect or phytotoxicity of from 0 to 9%)

## CCn1nc(C(F)(F)F)c(CS(=O)(=O)C2=NOC(C)(C)C2)c1OC(F)F [Compound 3-0190, 3-(5-difluoromethoxy-1-ethyl-3-trifluoromethyl-1H-pyrazol-4-ylmethanesulfonyl)-5,5-dimethyl-2-isoxazoline]
other
  melting point: 98 to 100 °C
[1]; [5]
  Herbicidal effect Green foxtail (Sataria viridis): 3 (Herbicidal effect or phytotoxicity of from 30 to 39%)
[2]; [5]
  Herbicidal effect Common lambsquarter (Chenopodium album L.): 1 (Herbicidal effect or phytotoxicity of from 10 to 19%)
corn; [5]
  Herbicidal effect Corn: 0 (Herbicidal effect or phytotoxicity of from 0 to 9%)

## CC1(C)CC(S(=O)(=O)Cc2cnccc2C(F)(F)F)=NO1
other
  melting point: 77 to 80 °C

## CC1(C)CC(S(=O)(=O)Cc2c(C(F)(F)F)nn(-c3ccccc3)c2Cl)=NO1 [Compound 3-0002, 3-(5-chloro-1-phenyl-3-trifluoromethyl-1H-pyrazol-4-ylmethylsulfonyl)-5,5-dimethyl-2-isoxazoline]
other
  melting point: 132 to 133 °C
[1]; [8]
  Herbicidal effect Green foxtail (Sataria viridis): 5 (Herbicidal effect or phytotoxicity of from 50 to 59%)
[2]; [8]
  Herbicidal effect Common lambsquarter (Chenopodium album L.): 2 (Herbicidal effect or phytotoxicity of from 20 to 29%)
corn; [8]
  Herbicidal effect Corn: 0 (Herbicidal effect or phytotoxicity of from 0 to 9%)

## CN(C)c1c(CS(=O)(=O)C2=NOC(C)(C)C2)c(C(F)(F)F)nn1-c1ccccc1 [Compound 3-0005, 5,5-dimethyl-3-(5-dimethylamino-1-phenyl-3-trifluoromethyl-1H-pyrazol-4-ylmethylsulfonyl)-2-isoxazoline]
other
  melting point: 150 to 151 °C
[1]; [8]
  Herbicidal effect Green foxtail (Sataria viridis): 2 (Herbicidal effect or phytotoxicity of from 20 to 29%)
[2]; [8]
  Herbicidal effect Common lambsquarter (Chenopodium album L.): 2 (Herbicidal effect or phytotoxicity of from 20 to 29%)
corn; [8]
  Herbicidal effect Corn: 0 (Herbicidal effect or phytotoxicity of from 0 to 9%)

## CC1(C)CC(S(=O)(=O)Cc2c(Cl)nn(C(F)F)c2C(F)(F)F)=NO1 [Compound 3-0011, 3-(3-chloro-1-difluoromethyl-5-trifluoromethyl-1H-pyrazol-4-ylmethylsulfonyl)-5,5-dimethyl-2-isoxazoline]
other
  melting point: 136 to 137 °C
[1]; [4]
  Herbicidal effect Green foxtail (Sataria viridis): 3 (Herbicidal effect or phytotoxicity of from 30 to 39%)
[2]; [4]
  Herbicidal effect Common lambsquarter (Chenopodium album L.): 2 (Herbicidal effect or phytotoxicity of from 20 to 29%)
corn; [4]
  Herbicidal effect Corn: 0 (Herbicidal effect or phytotoxicity of from 0 to 9%)

## CC1(C)CC(S(=O)(=O)Cc2c(C(F)(F)F)nn3c2OCCC3)=NO1
other
  melting point: 151 to 152 °C

## CC1(C)CC(SCc2c(C(F)(F)F)nn(-c3ccccc3)c2Cl)=NO1
other
  melting point: 89 to 90 °C

## CC1(C)CC(SCc2c(C(F)(F)F)nn(C(F)F)c2Cl)=NO1
other
  melting point: 41 to 42 °C
